For orientation: Tmax means the time at which the peak concentration occurs.

Each structure is given as a SMILES string. Read-outs that look alike come from different tables or passages of the source.

Series [1] in a line: Plasma levels of IVA, TEZ and ELX by LC-MS/MS in pediatric cystic fibrosis patients at steady state on Kaftrio. The class given is in vivo, human. Conditions: n = 25 pediatric CF patients, steady state; for Cmax at 4 h: both sexes, human, plasma, oral, 4 h after morning Kaftrio dose. The protocol: The clinical performance of our validated method was tested on n = 25 samples from pediatric patients affected by cystic fibrosis. Table 5 reports plasma concentrations of IVA, TEZ and ELX measured before (T0) and 4 h after (T4) the morning dose assumption of Kaftrio® (corresponding to IVA Tmax). For IVA, the plasma concentration at 12 h (T12) was obtained by using C4h*e^−β(t12−t4), and the AUC0–12h was calculated to assess the systemic exposure within the interval between two doses (Table 5). Thereafter, AUC0–12h values were multiplied by 2 in order to perform a regression analysis of T0 concentrations versus AUC0–24h.
The clinical applicability of our validated method was tested on n = 25 plasma samples from pediatric patients with a median (range) age of 9.5 (7–17) years and affected by cystic fibrosis (CF). These patients (n = 14 males and n = 11 females) were followed-up during the routine clinical practice at Pneumology and Cystic Fibrosis Unit of Bambino Gesù Children’s Hospital, and were concomitantly receiving therapies with pancreatic enzymes, bronchodilators, antibiotics (including carbapenems, macrolides, beta-lactams, lipopeptides, fluoroquinolones) and proton pump inhibitors.
In order to evaluate systemic exposure to each CFTR modulator, drug levels were measured at steady-state by collecting EDTA–whole blood samples before (T0, corresponding to the minimum plasma concentration, Ctrough,) and 4 h after the morning dose intake (T4, corresponding to the maximum concentration, Cmax). After centrifugation at 3500 rcf for 5 min, plasma was recovered from whole blood samples. Plasma samples were collected and stored at −80 °C until analysis.
According to the Kaftrio® summary of product characteristics (SmPC), patients received a morning dose consisting of two ivacaftor 75 mg/tezacaftor, 50 mg/elexacaftor, 100 mg tablets, whereas one ivacaftor 150 mg tablet was taken in the evening (every 12 h).
Elexacaftor/tezacaftor/ivacaftor plasma levels were determined using high-performance liquid chromatography (HPLC) coupled to mass spectrometry (MS/MS). EDTA–whole blood samples were collected before (T0) and 4 h after (T4) morning drug intake. Analysis of Kaftrio® plasma levels was performed at Division of Metabolic Diseases and Drug Biology of Bambino Gesù Children’s Hospital, IRCCS, in Rome (Italy). The liquid chromatography (LC) system consisted of an UHPLC Agilent 1290 Infinity II (Agilent Technologies, Deutschland GmbH, Waldbronn, Germany). Gradient chromatographic separation was performed in reverse phase mode with a Luna Omega 1.60 µm Polar C18 (100 × 2.1 mm) column (Phenomenex) maintained at 40 °C, with mobile phase A (0.1% formic acid (FA) in water) and mobile phase B (0.1% formic acid and 25% of 2-propanol in ACN). The flow rate of mobile phases was 0.4 mL/min. The duration of each chromatographic run was 10.50 min.
The volume injected was 1 μL. Detection of IVA, IVA-d9, TEZ, TEZ-d4, ELX and ELX-d3 was carried out using a 6470 Mass Spectrometry system (Agilent Technologies, Deutschland GmbH, Waldbronn, Germany) equipped with an ESI-JET-STREAM source operating in the positive ion (ESI+) mode. Mass spectrometric conditions were as follows: Gas Temperature 350 °C, Gas Flow 9 L/min, Sheath Gas Temperature 300 °C, Sheath Gas Flow 9 L/min, Capillary 4000 V, Nebulizer 35 psi.
A 10 µL measure of IS working solution with IVA-d9, TEZ-d4 and ELX-d3 was added to 50 µL of plasma or CAL or QC or blank sample in darkened tubes. After vortexing for 5 s, 300 µL of pure ACN were added to each sample. Samples were mixed for 60 s and centrifuged at 13,000 rpm for 9 min at room temperature. Thereafter, 200 µL of supernatant were collected in amber glass vials and injected into the UHPLC-MS/MS system.
Demographic data and PK parameters were analyzed using descriptive statistics. The median with interquartile range (IQR) was used to describe Ctrough levels. […]

Series [2] in a line: Short- and long-term autosampler stability of prepared QC samples at room temperature. The class given is physicochemical. Conditions: autosampler. Here is the method:
Both short- and long-term stability were evaluated on prepared QC samples kept at room temperature for a maximum of 9 days. After 24 h from QC sample preparation and first assessment (Time 0), the stability was around 100% for all QC samples. […] Autosampler stability was tested by analyzing IVA, TEZ and ELX concentrations in QCs maintained at room temperature at time 0 (corresponding to preparation of QC samples and to the first measurement) and after 24 h (short-term stability) or 9 days (long-term stability). We also evaluated, on prepared low-, medium- and high-QC samples, the stability following one cycle of freezing (−80 °C) and thawing (after 12 days). To further assess long-term stability, n = 3 T0 and T4 of authentic samples, stored at −80 °C over a period of five months, were randomly chosen and re-analyzed. The percentage difference between the concentration measured at each sampling point and the initial concentration was calculated. Based on ICH guideline M10, a percentage difference below the 15% was considered acceptable.

The nature of series [3]: Stability of prepared QC samples after one cycle of freezing (−80 °C) and thawing. The class given is physicochemical. The settings on record: low-, medium- and high-QC samples, thawed after 12 days. The protocol:
(§1) We have also evaluated the stability of prepared low-, medium- and high-QC samples following one cycle of freezing (−80 °C) and thawing (after 12 days). The calculated stability for ivacaftor, tezacaftor and elexacaftor was 100–107% after 12 days. Patient samples (n = 3 T0 and T4) were randomly selected and re-analyzed after being stored at −80 °C over a period of five months. Compared to the first measurement (time 0), the stability ranged from 85.48 ± 19.83% (mean ± SD) for IVA T4 to 90.55 ± 2.42% for ELX T0 (Supplementary Table S2). Autosampler stability was tested by analyzing IVA, TEZ and ELX concentrations in QCs maintained at room temperature at time 0 (corresponding to preparation of QC samples and to the first measurement) and after 24 h (short-term stability) or 9 days (long-term stability). We also evaluated, on prepared low-, medium- and high-QC samples, the stability following one cycle of freezing (−80 °C) and thawing (after 12 days). To further assess long-term stability, n = 3 T0 and T4 of authentic samples, stored at −80 °C over a period of five months, were randomly chosen and re-analyzed. The percentage difference between the concentration measured at each sampling point and the initial concentration was calculated. Based on ICH guideline M10, a percentage difference below the 15% was considered acceptable.

The nature of series [4]: Long-term −80 °C stability of authentic patient plasma samples. The class given is physicochemical, human. Here is the method: as §1
On the set-up of series [5]: method as in ref 18 = [18]; 18. U.S. Food and Drug Administration Center for Drug Evaluation and Research: Nda/Bla, Multi-Disciplinary Review and Evaluation, Lumacaftor/Ivacaftor Available online: https://www.accessdata.fda.gov/. Conditions: Trikafta drug registration documents; cited from earlier work.
Details of series [6]: method as in PMID 38494378. Conditions: cited from earlier work.
On the set-up of series [7]: method as in PMID 36015300. The settings on record: cited from earlier work.
On the set-up of series [8]: method as in PMID 40245791. The settings on record: H-QC, after sample preparation; cited from earlier work.
The next series concerns CFTR. Also on record: method as in PMID 36015300. The settings on record: cited from earlier work.
Setting [9] is: patient plasma n = 3, stored at −80 °C, 5 months vs Time 0.

Take `Cc1nn(C)cc1S(=O)(=O)NC(=O)c1ccc(-n2ccc(OCC(C)(C)C(F)(F)F)n2)nc1N1C[C@@H](C)CC1(C)C` [ELX, Elexacaftor]: the Cmax at 4 h was found to be 13300 ng/mL in series [1] (read-out: Plasma concentration T4 (Cmax), 25th Percentile); 24100 ng/mL in [1] (read-out: Plasma concentration T4 (Cmax), 75th Percentile); 17800 ng/mL in [1] (read-out: Plasma concentration T4 (Cmax), Median). In series [1] (before morning Kaftrio dose), the “Plasma concentration T0 (Ctrough), 25th Percentile” value stood at 5820 ng/mL. Further, the “Plasma concentration T0 (Ctrough), 75th Percentile” value in series [1] (before morning Kaftrio dose) worked out at 12940 ng/mL. For the same compound, in series [1] (before morning Kaftrio dose), the “Plasma concentration T0 (Ctrough), Median” value amounted to 8730 ng/mL. In addition, the “Stability (%)” value in series [2] (H-QC (18 µg/mL), 24 H vs Time 0) worked out at 98.74%; in series [2] (H-QC (18 µg/mL), Day 9 vs Time 0), 114.46%; in [2] (L-QC (0.3 µg/mL), 24 H vs Time 0) it was 101.72%; in series [2] (L-QC (0.3 µg/mL), Day 9 vs Time 0), 113.79%; in series [2] (M-QC (8 µg/mL), 24 H vs Time 0), 99.76%; in series [2] (M-QC (8 µg/mL), Day 9 vs Time 0), 113.09%. For the same compound, the “Stability after one cycle of freezing and thawing” value in series [3] is 100–107%. Also, the “Stability, % of the first measurement” value in [4] (n = 3 T0 and T4 patients' samples, −80 °C, five months) is on record as “higher than 85%”. Besides, in series [4] (setting [9]), the “Stability (%) mean ± SD, T0 samples” value came to 90.55 ± 2.42%. The “Stability (%) mean ± SD, T4 samples” value in series [4] (setting [9]) is listed as 89.18 ± 18.05%. In series [5], the “Ctrough (Cmin), mean ± SD” value is 4050 ± 2070 ng/mL. For the same compound, the “Minimum concentration (Cmin), median (range)” value in [6] is 2800 ng/mL. In addition, in series [7], the Tmax is recorded as 6 h. Moreover, the “Remaining % after ten days in the autosampler” value in series [8] was 99.8%.

In the case of `CC(C)(C)c1cc(C(C)(C)CO)c(O)cc1NC(=O)c1c[nH]c2ccccc2c1=O` [M1-IVA, hydroxymethyl ivacaftor], the “Potency of metabolite relative to parent compound” value in the series on CFTR was 1/6.

The values are drawn from article PMC12298270, “Development and Validation of a New LC-MS/MS Method for Simultaneous Quantification of Ivacaftor, Tezacaftor and Elexacaftor Plasma Levels in Pediatric Cystic Fibrosis Patients” (Pharmaceuticals, 2025).
